From patent publication US20210106566A1, “PHARMACEUTICAL COMPOSITION FOR TREATING AND/OR PREVENTING PERIPHERAL NEUROPATHY OR SPINAL CORD INJURY” (NATIONAL UNIVERSITY CORPORATION NAGOYA UNIVERSITY, priority 2015, published 2021)

Tests used:
NSC34 cells = assay: Screening of neurite length in NSC34 cells; assay type: cell-based, mouse; settings: dose dependency, FIG. 1
Description: The cells were seeded in DMEM/F12 differentiation medium (Invitrogen) supplemented with 1% FBS and […] doxycycline in a 96-well plate at 1.6×10^3 cells/cm^2 to induce the expression of GFP. […] Subsequently, cell nuclei were stained with Hoechst 33342 (1:100,000, Sigma Aldrich). Sixteen images per well were acquired on ArrayScan VTI HCS Reader (Thermo Scientific Cellomics). The average of neurite length in each well was automatically determined using Neuronal Profiling v4.0 BioApplication (Thermo Scientific Cellomics).

primary motor neurons [1] = assay: Time-lapse imaging of axonal growth; assay type: cell-based, mouse
Description: Primary cultured motor neurons were seeded in a 96-well plate at 6.0×10^3 cells/well in Sumilon neuron culture medium to induce neurite outgrowth. Phase-contrast images were taken every 8 hours for 3 days on IncuCyte ZOOM Live Cell Imaging System (Essen Bioscience). The neurite length was automatically analyzed with NeuroTrack software (IncuCyte).

primary motor neurons [2] = assay: MTS assay of cell survival under oxidative stress (hydrogen peroxide); assay type: cell-based, mouse; settings: zonisamide 1 hour before 100 μmol/L hydrogen peroxide for 24 hours; dose-dependent
Description: Cell survival rate was assessed by MTS assay (CellTiter 96 Aqueous One Solution Cell Proliferation Assay, Promega), which measured the activity of mitochondrial reductase. Primary cultured motor neurons were cultured in Sumilon neuron culture medium for 24 hours, and the medium was then exchanged to DMEM/F12 supplemented with 0.5% FBS and cultured for 24 hours. Zonisamide was added at various concentrations for 1 hour and 100 μmol/L hydrogen peroxide was then added for 24 hours. The cells were incubated with MTS reagent for 2 hours. MTS signal was quantified on a microplate reader (PowerScan HT, DS PharmaBiomedical). The group of cells treated without hydrogen peroxide was used as a control for evaluating MTS signal.

[3] = test system: Bdnf, Ngf, Ntf4, Ntrk1, Ntrk2, Map2, Mapt, and Gap43; assay: Real-time RT-PCR of genes associated with neurite outgrowth in primary motor neurons; assay type: cell-based, mouse
From the text: Total RNA was isolated, using Trizol (Thermo Fisher Scientific), from primary motor neurons cultured with 0, 1, or 10 μmol/L zonisamide. Similarly, total RNA was isolated from sciatic nerve segments with a length of 3 mm or from tibialis anterior muscle. Single-stranded cDNA was synthesized using ReverTra Ace (Toyobo). The mRNA expression levels of Bdnf, Ngf, Ntf4, Ntrk1, Ntrk2, Map2, Mapt, and Gap43 were quantified using LightCycler 480 Real-Time PCR (Roche) and SYBR Green (Takara). The mRNA levels were normalized with the expression level of Gapdh.

Erk1/2 = assay: Western blot of Erk1/2 phosphorylation in primary motor neurons; assay type: cell-based, mouse; settings: primary motor neurons, 0, 10, or 20 μmol/L, days 2 and 3
Description: (§1) Zonisamide (0, 10, or 20 μmol/L) was added to primary motor neurons 4 hours after the beginning of culture. The cells were rinsed with a buffer (50 mmol/L HEPES pH 7.0, 150 mmol/L NaCl, 1% glycerol, 1% TritonX-100, 1.5 mmol/L MgCl2, 1 mmol/L EGTA, 100 mmol/L NaF, 10 mmol/L sodium pyrophosphate, […], 1 mmol/L PMSF, and 1 mmol/L sodium orthovanadate (V)) at days 2 and 3. Total protein was dissolved in 1× Laemmli buffer, separated on a 10% SDS polyacrylamide gel, and transferred to a polyvinylidene fluoride membrane (Immobilon-P, Millipore). The membrane was washed with Tris-buffered physiological saline with 0.05% Tween 20 (TBS-T) and blocked with TBS-T containing 3% skim milk at room temperature for 1 hour. The membrane was incubated with any of anti-Erk1/2 (#4696, Cell Signaling), anti-phosphorylated Erk1/2 (#4370, Cell Signaling), or anti-phosphorylated JNK1/2/3 (#4668, Cell Signaling) antibody (diluted at 1:1000) at 4° C. overnight. The membrane was washed with TBS-T for 10 minutes three times and incubated with […] secondary antibody conjugated to horseradish peroxidase (HRP, GE Healthcare, 1:6000) at room temperature for 1 hour. The blot was detected with Amersham ECL Western blotting detection reagent (GE Healthcare) and quantified with ImageJ program (http://imagej.nih.gov/ij/index.html).

JNK1/2/3 = assay: Western blot of JNK1/2/3 phosphorylation in primary motor neurons; assay type: cell-based, mouse
Description: as §1

[4] = test system: mouse sciatic nerve autologous transplantation model; assay: Mouse sciatic nerve autologous transplantation model: tibialis anterior muscle cross sections; assay type: in vivo; settings: 30 mg/kg/day, 8 weeks after surgery
From the text: Adult male C57BL/6J mice (8 weeks old; 19.5-22.0 g) were purchased from Charles River. The mice were anesthetized with isoflurane and underwent gluteal muscle incision under a sterile condition to expose the sciatic nerve in the left leg. The sciatic nerve was cut at the following two sites (1) and (2): (1) the site 3 mm distal to the first bifurcation of biceps femoris (hereinafter referred to as proximal transection site) (2) the site 3 mm distal to the proximal transection site (hereinafter referred to as distal transection site) The excised nerve segment with a length of 3 mm was confirmed to be completely cut at the two sites. The perineurium was sutured with nylon thread (10-0 black) at the proximal transection site and the distal transection site under a microscope. The remaining thread was used as a marker for finding the nerve transection site in the sacrifice of the mice. In order to reduce DMSO toxicity, a solution of 60 mg/mL zonisamide in 100% DMSO was prepared and the solution was diluted in olive oil to give a solution of 3 mg/mL zonisamide in 5% DMSO. […] Myelin sheath formation in the sciatic nerve was analyzed in six mice in each group. […] The number and area of myelinated axons in the sciatic nerve were manually measured using ImageJ software in a blinded fashion. […]

[5] = 2 and 3 days after zonisamide addition

Compound: NS(=O)(=O)Cc1noc2ccccc12 [Zonisamide, 3-sulfamoylmethyl-1,2-benzisoxazole]
- axonal growth (average neurite length) in NSC34 cells (NSC34 cells): dose-dependent axonal growth
- neurite outgrowth effect, time-lapse imaging (primary motor neurons [1]; forty hours after zonisamide administration, FIG. 3): neurite outgrowth effect was observed
- neurite outgrowth effect, 10 μmol/L versus 1 μmol/L (primary motor neurons [1]; throughout the observation period (3 days)): higher in the 10 μmol/L zonisamide administration group than in the 1 μmol/L zonisamide administration group
- number of living cells (MTS signal) (primary motor neurons [2]): significantly increased
- mRNA level of GAP43 [3]: not increased until day 3
- mRNA level of MAP2 [3]: not increased until day 3
- mRNA level of Mapt [3]: not increased until day 3
- mRNA level of Ntrk1 [3]: increased
- mRNA level of Ntrk2 [3]: increased
- mRNA level of BDNF [3, 5]: increased
- mRNA level of NGF [3, 5]: increased
- mRNA level of NTF4 [3, 5]: increased
- Erk1/2 phosphorylation (Erk1/2): suppress
- phosphorylation level of JNK1/2/3 (JNK1/2/3): did not affect
- denervation atrophy of tibialis anterior muscle (cross-sectional area of muscle fibers) [4]: promoted recovery from denervation atrophy
